From ChEMBL document CHEMBL1949573, “Isoform-selective thiazolo[5,4-b]pyridine S1P1 agonists possessing acyclic amino carboxylate head-groups” (Bioorg Med Chem Lett, 2012)
≈ marks a conversion by molar mass, not a printed value. Calls of active or inactive are those of the source. The rule behind the calls is not given here.

What was measured:
[1] = target: T1, Sphingosine 1-phosphate receptor 3 (Homo sapiens, UniProt Q99500); experiment: Agonist activity at human S1P3 receptor expressed in CHO cells coexpressing chimeric Gq/i5 G-protein assessed as Ca2+ release by FLIPR assay; format: functional, cell-based
T1 sequence (Q99500 whole entry): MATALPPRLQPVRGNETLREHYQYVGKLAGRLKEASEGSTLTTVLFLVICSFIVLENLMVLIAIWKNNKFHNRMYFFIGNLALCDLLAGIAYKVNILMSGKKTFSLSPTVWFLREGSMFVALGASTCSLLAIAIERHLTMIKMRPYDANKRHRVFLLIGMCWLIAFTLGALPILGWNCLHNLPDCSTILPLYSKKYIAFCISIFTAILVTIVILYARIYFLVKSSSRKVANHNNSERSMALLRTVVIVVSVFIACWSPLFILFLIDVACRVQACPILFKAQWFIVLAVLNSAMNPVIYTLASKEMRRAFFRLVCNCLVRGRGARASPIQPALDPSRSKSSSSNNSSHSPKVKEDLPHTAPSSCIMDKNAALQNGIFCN

[2] = target: T2, Sphingosine 1-phosphate receptor 1 (Homo sapiens, UniProt P21453); experiment: Agonist activity at eGFP-tagged human S1P1 receptor expressed in U2OS cells assessed as receptor internalization after 1 hr by Hoechst dye-based microscopic analysis relative to 1 uM 1-(4-(6-benzylbenzofuran-2-yl)-3-fluorobenzyl)azetidine-3-carboxylic acid; format: functional, cell-based
T2 sequence (P21453 whole entry): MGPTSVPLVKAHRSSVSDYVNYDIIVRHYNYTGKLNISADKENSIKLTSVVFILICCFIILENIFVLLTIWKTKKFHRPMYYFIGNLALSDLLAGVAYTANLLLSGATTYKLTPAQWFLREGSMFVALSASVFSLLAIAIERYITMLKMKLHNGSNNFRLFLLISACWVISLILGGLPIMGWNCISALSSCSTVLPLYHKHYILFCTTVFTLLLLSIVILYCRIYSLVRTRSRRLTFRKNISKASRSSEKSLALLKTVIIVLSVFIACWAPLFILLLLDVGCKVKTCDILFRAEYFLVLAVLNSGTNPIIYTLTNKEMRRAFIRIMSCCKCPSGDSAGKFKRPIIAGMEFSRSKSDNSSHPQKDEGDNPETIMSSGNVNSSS

[3] = target: T2, Sphingosine 1-phosphate receptor 1; experiment: Agonist activity at eGFP-tagged human S1P1 receptor expressed in U2OS cells assessed as receptor internalization after 1 hr by Hoechst dye-based microscopic analysis; format: functional, cell-based
Plasma [4] = experiment: Plasma concentration in Lewis rat at 1 mg/kg, po; format: ADME, organism-based; parameters: dose 1 mg/kg, route oral; conditions: in vivo
Rattus norvegicus [5] = experiment: Immunomodulatory activity in Lewis rat assessed as peripheral lymphocyte reduction at 1 mg/kg, po after 24 hrs; format: functional; parameters: scale not given: the % may be the effect or the level left
[6] = target: T1, Sphingosine 1-phosphate receptor 3; experiment: Agonist activity at human S1P3 receptor expressed in CHO cells coexpressing chimeric Gq/i5 G-protein assessed as Ca2+ release by FLIPR assay relative to 0.2 uM S1P; format: functional, cell-based
[7] = Solubility of the compound in simulated intestinal fluid; format: physicochemical; conditions: simulated gi fluid
[8] = Solubility of the compound in phosphate buffer saline; format: physicochemical
[9] = Solubility of the compound in 0.01 N HCl; format: physicochemical; conditions: buffer
rat MDR1 [10] = experiment: Permeability from apical to basolateral side in pig LLC-PK1 cells expressing rat MDR1; format: ADME, cell-based, Sus scrofa; conditions: read-out: permeability
Rattus norvegicus [11] = experiment: Immunomodulatory activity in Lewis rat assessed as peripheral lymphocyte reduction at 0.1 mg/kg, po after 24 hrs relative to control; format: functional; parameters: scale not given: the % may be the effect or the level left
Plasma [12] = experiment: Plasma concentration in Lewis rat at 0.1 mg/kg, po; format: ADME, organism-based; parameters: dose 0.1 mg/kg, route oral; conditions: in vivo
[13] = Oral bioavailability in Sprague-Dawley rat at 3 mg/kg; format: ADME, organism-based; conditions: in vivo
[14] = target: T3, Voltage-gated inwardly rectifying potassium channel KCNH2 (Homo sapiens, UniProt Q12809); experiment: Binding affinity to human Erg
T3 sequence (Q12809 whole entry): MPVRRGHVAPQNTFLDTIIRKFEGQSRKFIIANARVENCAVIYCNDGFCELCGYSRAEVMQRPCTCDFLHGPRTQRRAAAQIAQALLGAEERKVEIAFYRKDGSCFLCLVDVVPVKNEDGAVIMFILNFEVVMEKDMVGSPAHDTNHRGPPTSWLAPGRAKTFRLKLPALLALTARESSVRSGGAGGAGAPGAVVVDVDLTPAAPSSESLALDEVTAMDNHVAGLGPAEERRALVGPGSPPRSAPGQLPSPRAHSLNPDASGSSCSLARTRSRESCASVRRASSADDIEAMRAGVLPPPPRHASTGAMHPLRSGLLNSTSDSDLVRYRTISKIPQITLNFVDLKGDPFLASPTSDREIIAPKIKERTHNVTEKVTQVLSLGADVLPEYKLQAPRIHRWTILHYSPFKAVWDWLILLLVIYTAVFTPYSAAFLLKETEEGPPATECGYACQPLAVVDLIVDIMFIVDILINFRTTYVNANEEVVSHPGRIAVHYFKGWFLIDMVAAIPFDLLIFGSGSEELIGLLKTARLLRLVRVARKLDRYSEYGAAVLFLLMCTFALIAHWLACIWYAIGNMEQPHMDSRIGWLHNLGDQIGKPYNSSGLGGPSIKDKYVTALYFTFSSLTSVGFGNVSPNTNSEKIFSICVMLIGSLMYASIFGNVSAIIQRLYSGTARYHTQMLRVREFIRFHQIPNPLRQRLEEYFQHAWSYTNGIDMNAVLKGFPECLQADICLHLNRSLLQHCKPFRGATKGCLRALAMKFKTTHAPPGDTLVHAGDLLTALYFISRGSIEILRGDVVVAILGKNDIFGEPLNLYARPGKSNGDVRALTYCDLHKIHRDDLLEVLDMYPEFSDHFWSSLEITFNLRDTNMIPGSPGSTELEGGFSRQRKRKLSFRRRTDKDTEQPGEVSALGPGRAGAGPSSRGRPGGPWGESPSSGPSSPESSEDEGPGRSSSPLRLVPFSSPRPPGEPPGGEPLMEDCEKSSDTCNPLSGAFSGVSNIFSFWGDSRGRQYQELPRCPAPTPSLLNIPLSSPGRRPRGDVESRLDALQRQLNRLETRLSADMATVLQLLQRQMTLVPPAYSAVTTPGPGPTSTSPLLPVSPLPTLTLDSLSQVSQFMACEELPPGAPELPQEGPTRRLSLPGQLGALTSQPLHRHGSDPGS

Rattus norvegicus [15] = experiment: Immunomodulatory activity in Lewis rat assessed as peripheral lymphocyte reduction at 1 mg/kg, po after 24 hrs relative to control; format: functional; parameters: scale not given: the % may be the effect or the level left
rat MDR1 [16] = experiment: Efflux ratio of permeability across pig LLC-PK1 cells expressing rat MDR1; format: ADME, cell-based, Sus scrofa
Rattus norvegicus [17] = experiment: Immunomodulatory activity in Lewis rat assessed as peripheral lymphocyte reduction at 0.3 mg/kg, po after 24 hrs relative to control; format: functional; parameters: scale not given: the % may be the effect or the level left
[18] = Mean residence time in Sprague-Dawley rat at 1 mg/kg, iv and 3 mg/kg, po; format: ADME, organism-based; conditions: in vivo
[19] = Fraction unbound in rat plasma; format: ADME, cell-free
[20] = Clearance in Sprague-Dawley rat at 1 mg/kg, iv and 3 mg/kg, po; format: ADME, organism-based; conditions: in vivo
[21] = Fraction unbound in human plasma; format: ADME, cell-free
Cytochrome P450 2D6 [22] = target: T4, Cytochrome P450 2D6 (Homo sapiens, UniProt P10635); experiment: Induction of CYP2D6; format: ADME
T4 sequence (P10635 whole entry): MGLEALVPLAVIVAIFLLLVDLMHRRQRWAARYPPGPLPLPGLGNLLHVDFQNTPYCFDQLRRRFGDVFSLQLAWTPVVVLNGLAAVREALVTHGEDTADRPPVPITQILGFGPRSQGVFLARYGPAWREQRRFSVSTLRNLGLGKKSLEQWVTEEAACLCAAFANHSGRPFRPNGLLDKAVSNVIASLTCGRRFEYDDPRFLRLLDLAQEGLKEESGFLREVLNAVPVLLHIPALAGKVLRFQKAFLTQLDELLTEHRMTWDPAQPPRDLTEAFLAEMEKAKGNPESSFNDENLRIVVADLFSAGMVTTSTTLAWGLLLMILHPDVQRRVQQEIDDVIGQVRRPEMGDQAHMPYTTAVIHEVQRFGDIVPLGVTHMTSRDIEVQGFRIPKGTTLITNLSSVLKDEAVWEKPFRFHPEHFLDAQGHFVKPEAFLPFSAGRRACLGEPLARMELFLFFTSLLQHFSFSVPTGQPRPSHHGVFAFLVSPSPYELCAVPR

[23] = Volume of distribution at steady state in Sprague-Dawley rat at 1 mg/kg, iv and 3 mg/kg, po; format: ADME, organism-based; conditions: in vivo, read-out: Vdss
Cytochrome P450 3A4 [24] = target: T5, Cytochrome P450 3A4 (Homo sapiens, UniProt P08684); experiment: Inhibition of CYP3A4; format: ADME
T5 sequence (P08684 whole entry): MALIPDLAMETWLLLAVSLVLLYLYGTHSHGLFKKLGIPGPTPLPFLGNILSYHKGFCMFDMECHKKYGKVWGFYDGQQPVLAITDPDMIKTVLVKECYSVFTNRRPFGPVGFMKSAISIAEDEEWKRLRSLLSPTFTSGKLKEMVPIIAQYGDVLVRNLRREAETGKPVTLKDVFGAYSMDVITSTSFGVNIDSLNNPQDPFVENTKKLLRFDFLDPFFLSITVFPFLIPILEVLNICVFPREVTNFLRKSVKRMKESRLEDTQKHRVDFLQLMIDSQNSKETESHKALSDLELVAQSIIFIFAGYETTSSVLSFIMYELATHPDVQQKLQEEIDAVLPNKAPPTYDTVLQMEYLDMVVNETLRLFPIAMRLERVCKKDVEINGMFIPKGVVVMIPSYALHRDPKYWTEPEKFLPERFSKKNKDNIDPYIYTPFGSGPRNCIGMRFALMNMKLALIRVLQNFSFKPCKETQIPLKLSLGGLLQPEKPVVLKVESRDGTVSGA

Cytochrome P450 3A4 [25] = target: T5, Cytochrome P450 3A4; experiment: Induction of CYP3A4; format: ADME
[26] = target: T3, Voltage-gated inwardly rectifying potassium channel KCNH2; experiment: Inhibition of human Erg by electrophysiology assay
Cytochrome P450 2D6 [27] = target: T4, Cytochrome P450 2D6; experiment: Inhibition of CYP2D6; format: ADME

| Structure (SMILES) | EC50 [1] | Efficacy [2] | EC50 [3] | Cp (Plasma [4]) | Activity (Rattus norvegicus [5]) | other results |
| --- | --- | --- | --- | --- | --- | --- |
| NCc1ccc(-c2nc3ccc(C4(c5ccccc5)CC4)nc3s2)c(F)c1 | > 2500 nM | 113% | 15 nM | – | – | – |
| N[C@H](CCc1ccc(-c2nc3ccc(C4(c5ccccc5)CC4)nc3s2)c(F)c1)C(=O)O | > 2500 nM | 128% | 0.3 nM | 5 ng/mL | 55% | – |
| N[C@@H](CC(=O)Nc1ccc(-c2nc3ccc(C4(c5ccccc5)CC4)nc3s2)c(F)c1)C(=O)O | > 2500 nM | 102% | 2 nM | 8 ng/mL | 4% | – |
| O=C(O)CCCc1ccc(-c2nc3ccc(C4(c5ccccc5)CC4)nc3s2)c(F)c1 | > 25000 nM | 100% | 62 nM | – | – | – |
| O=C(O)CNCCc1ccc(-c2nc3ccc(C4(c5ccccc5)CC4)nc3s2)c(F)c1 | 1440 nM | 102% | 2 nM | 1 ng/mL | 15% | Efficacy [6]: 11% |
| O=C(O)C1CN(Cc2ccc(-c3nc4ccc(C5(c6ccccc6)CC5)nc4s3)c(F)c2)C1 | – | – | – | 116 ng/mL | 71% | solubility [7]: 65 ng/mL (≈ 0.141 µM); Efficacy [6]: 26%; solubility [8]: 7 ng/mL (≈ 0.0152 µM); solubility [9]: 3 ng/mL (≈ 0.00653 µM); Papp A→B (rat MDR1 [10]): 14.6 ×10⁻⁶ cm/s; Activity (Rattus norvegicus [11]): 65%; Cp (Plasma [12]): 10 ng/mL |
| O=C(O)CCCNCc1ccc(-c2nc3ccc(C4(c5ccccc5)CC4)nc3s2)c(F)c1 | > 2500 nM | 128% | 179 nM | – | – | – |
| Nc1ccc(-c2nc3ccc(C4(c5ccccc5)CC4)nc3s2)c(F)c1 | > 25000 nM | 92% | 123 nM | – | – | – |
| C[C@](N)(CCc1ccc(-c2nc3ccc(C4(c5ccccc5)CC4)nc3s2)c(F)c1)C(=O)O | > 2500 nM | 93% | 3 nM | 6 ng/mL | 15% | – |
| O=C(O)CCCNc1ccc(-c2nc3ccc(C4(c5ccccc5)CC4)nc3s2)c(F)c1 | 7120 nM | 113% | 36 nM | – | – | Efficacy [6]: 18% |
| O=C(O)CCCCc1ccc(-c2nc3ccc(C4(c5ccccc5)CC4)nc3s2)c(F)c1 | > 25000 nM | 103% | 2410 nM | – | – | – |
| N[C@H](CC(=O)Nc1ccc(-c2nc3ccc(C4(c5ccccc5)CC4)nc3s2)c(F)c1)C(=O)O | > 2500 nM | 110% | 2 nM | 4 ng/mL | 0% | – |
| O=C(O)CCNCc1ccc(-c2nc3ccc(C4(c5ccccc5)CC4)nc3s2)c(F)c1 | > 25000 nM | 96% | 3 nM | 12 ng/mL | 27% | – |
| N[C@H](CC(=O)O)C(=O)Nc1ccc(-c2nc3ccc(C4(c5ccccc5)CC4)nc3s2)c(F)c1 | 834 nM | 100% | – | 2 ng/mL | 0% | Efficacy [6]: 31% |
| C[C@@](N)(CCc1ccc(-c2nc3ccc(C4(c5ccccc5)CC4)nc3s2)c(F)c1)C(=O)O | > 2500 nM | 114% | 0.2 nM | 10 ng/mL | 71% | bioavailability [13]: 16%; solubility [7]: 108 ng/mL (≈ 0.234 µM); solubility [8]: < 1 ng/mL; Activity [14]: > 30 µM; Activity (Rattus norvegicus [15]): 56%; efflux ratio (rat MDR1 [16]): 1.8; Activity (Rattus norvegicus [17]): 29%; solubility [9]: 6 ng/mL (≈ 0.013 µM); MRT [18]: 11.4 h; fraction unbound [19]: 0.039; clearance [20]: 6 mL/min/kg; fraction unbound [21]: 0.037; Activity (Cytochrome P450 2D6 [22]): Not Active; Papp A→B (rat MDR1 [10]): 4 ×10⁻⁶ cm/s; Vd [23]: 4.1 L/kg; Activity (Rattus norvegicus [11]): inactive; inhibition (INH) (Cytochrome P450 3A4 [24]): Not Active; Activity (Cytochrome P450 3A4 [25]): Not Active; INH [26]: > 10 µM; inhibition (INH) (Cytochrome P450 2D6 [27]): Not Active |
| N[C@@H](CCc1ccc(-c2nc3ccc(C4(c5ccccc5)CC4)nc3s2)c(F)c1)C(=O)O | > 2500 nM | 115% | 0.5 nM | 2 ng/mL | 22% | – |
| NCCc1ccc(-c2nc3ccc(C4(c5ccccc5)CC4)nc3s2)c(F)c1 | > 25000 nM | 155% | 478 nM | – | – | – |
| O=C(O)c1ccc(-c2nc3ccc(C4(c5ccccc5)CC4)nc3s2)c(F)c1 | > 25000 nM | 105% | 2820 nM | – | – | – |
| O=C(O)CCNc1ccc(-c2nc3ccc(C4(c5ccccc5)CC4)nc3s2)c(F)c1 | > 2500 nM | 94% | 42 nM | – | – | – |
| O=C(O)CNCc1ccc(-c2nc3ccc(C4(c5ccccc5)CC4)nc3s2)c(F)c1 | 1560 nM | 103% | 3 nM | 7 ng/mL | 37% | Efficacy [6]: 17% |
| O=C(O)CCC(=O)Nc1ccc(-c2nc3ccc(C4(c5ccccc5)CC4)nc3s2)c(F)c1 | 5560 nM | 80% | 19 nM | – | – | Efficacy [6]: 39% |
| N[C@@H](CC(=O)O)C(=O)Nc1ccc(-c2nc3ccc(C4(c5ccccc5)CC4)nc3s2)c(F)c1 | 1130 nM | 134% | 0.5 nM | 1 ng/mL | 0% | Efficacy [6]: 35% |
| Fc1ccccc1-c1nc2ccc(C3(c4ccccc4)CC3)nc2s1 | > 25000 nM | 98% | 45 nM | – | – | – |
| NCCCc1ccc(-c2nc3ccc(C4(c5ccccc5)CC4)nc3s2)c(F)c1 | > 2500 nM | 121% | 8 nM | – | – | – |
| CN(CCC(=O)O)Cc1ccc(-c2nc3ccc(C4(c5ccccc5)CC4)nc3s2)c(F)c1 | > 25000 nM | 153% | 196 nM | – | – | – |
| O=C(O)CCc1ccc(-c2nc3ccc(C4(c5ccccc5)CC4)nc3s2)c(F)c1 | > 25000 nM | 81% | – | – | – | – |
